Source: US5457097A, “Androst-4-eno[4,5-b]pyrrole derivatives” (Farmitalia Carlo Erba S.r.l., priority 1992, dated 1995)

Target: T1, human placental aromatase (Homo sapiens, UniProt P11511)
T1 construct: utilizes the human placental microsomal fraction as enzyme source; from tissue; host or cells: human placenta, microsomal fraction
T1 sequence (P11511 1-503): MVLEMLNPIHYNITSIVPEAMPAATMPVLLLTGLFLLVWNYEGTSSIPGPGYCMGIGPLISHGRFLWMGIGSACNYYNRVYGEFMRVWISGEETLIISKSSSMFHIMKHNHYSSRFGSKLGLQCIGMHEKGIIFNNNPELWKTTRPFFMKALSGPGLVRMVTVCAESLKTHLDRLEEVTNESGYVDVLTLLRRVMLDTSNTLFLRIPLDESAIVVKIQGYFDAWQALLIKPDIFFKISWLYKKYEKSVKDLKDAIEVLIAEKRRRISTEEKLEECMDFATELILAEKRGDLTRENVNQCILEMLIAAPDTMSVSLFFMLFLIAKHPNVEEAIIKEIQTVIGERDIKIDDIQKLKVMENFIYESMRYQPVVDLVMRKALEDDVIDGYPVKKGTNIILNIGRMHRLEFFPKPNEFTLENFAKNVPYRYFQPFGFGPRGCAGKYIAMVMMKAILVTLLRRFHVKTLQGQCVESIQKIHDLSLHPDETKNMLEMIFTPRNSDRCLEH
Test: in vitro aromatase inhibition test (Thompson and Siiteri), 3H2O release from [1β-3H]androstenedione
Type: biochemical
Conditions: human placental microsomal fraction; [1β-3H]androstenedione 50 nM, NADPH, 15 min incubation at 37° C.; read-out: concentration producing 50% inhibition of human placental aromatase (IC50)
Experimental: The concentration of each compound required to reduce control aromatase activity by 50% (IC50) was determined by plotting % inhibition versus log of inhibitor concentration.

In the case of C[C@]12C=CC(=O)c3[nH]cc(c31)C[C@@H]1[C@@H]2CC[C@]2(C)C(=O)CC[C@@H]12 [3,17-dioxo-1'H-androsta-1,4-dieno[4,5-b]pyrrole], the IC50 is reported as 120 nM.
